The source of these data is the NIST ThermoML archive (doi:10.1016/j.jct.2017.05.010).

Structures are written as SMILES. Numbers after ± are expanded uncertainties.

For the data set the following is noted: 101.33 kPa, Liquid, Single path-length method.

As to `CCCCOCCCN` [3-butoxy-1-propanamine], the speed of sound came out at 1387.3 ± 1.7 m/s (283.15 K); 1367.3 ± 1.7 m/s (288.15 K); 1346.7 ± 1.7 m/s (293.15 K); 1326.4 ± 1.7 m/s (298.15 K); 1306.7 ± 1.7 m/s (303.15 K).

A word on the speed of sound: it is the propagation velocity of pressure waves in the medium.
